# Experiments:
# [1] = system: SK-N-MC neuroblastoma cells; assay: SK-N-MC neuroblastoma xenograft tumor growth in mice (04 IGFR-13, 19D12 vs. Cisplatin); type: in vivo, Athymic nude mice; details: Cisplatin 2 mpk
# [2] = system: Hs700T malignant pancreatic cells; assay: Hs700T pancreatic xenograft tumor growth in mice (04 IGFR-16, 19D12 and Gemzar combination);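 also: subcutaneous flank xenografts in athymic nude mice, treated once tumors averaged 100 mm^3, antibody given intraperitoneally twice weekly, tumor size measured by calipers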
# Description: (§1) Athymic nude mice were inoculated with tumor cells in the right flank, subcutaneously, along with Matrigel (1:1 cells:gel). In these experiments, 5×10^6 cells/mouse in a 1:1 mix with regular matrigel were inoculated subcutaneously. Tumor size was measured with calipers and the data was entered into the labcat program. Mice were grouped with average size of 100 mm^3. Tumor size and body weight were measured twice weekly.
# (§2) In these experiments, mice were dosed twice per week, intraperitoneally (i.p.) with antibody 19D12 and chemotherapeutic agents at the indicated frequency. Tumor size and mouse body weight was measured twice weekly after treatment.
# [3] = system: SK-N-AS neuroblatoma cells; assay: SK-N-AS neuroblastoma xenograft tumor growth in mice (03 IGFR-09, 19D12 vs. Cytoxan); type: in vivo, Athymic nude mice; details: 100 mpk Cytoxan
# Description: as §1, §2
# [4] = system: SJCRH30 rhabdomyosarcoma cells; assay: SJCRH30 rhabdomyosarcoma xenograft tumor growth in mice (05 IGFR-01, 19D12 and Cytoxan); type: in vivo, Athymic nude mice; details: 100 mpk Cytoxan
# Description: as §1, §2
# [5] = system: SJSA-1 osteosarcoma cells; assay: SJSA-1 osteosarcoma xenograft model (05-IGFR-12), dosing from day 18 post inoculation; type: in vivo, female nude mouse (strain NU/NU); details: 100 mpk Cytoxan
# Description: About 7 million SJSA-1 osteosarcoma cells were inoculated subcutaneously to the flank of each female nude mouse (strain NU/NU from Charles River, age ˜6 wks-old, average weight ˜20 gram). For the experiment set forth in Table 8, dosing was initiated on day 18 post inoculation, when the xenograft tumor reached an average size of about 100 mm^3. Anti-IGF1R antibody (19D12 Light chain F/Heavy chain A (as set forth above)) was given ip twice a week at the dose of either 0.02 mg, 0.1 and 0.5 mg per mouse, while cytotoxic Cytoxan (cyclophosphamide) was given ip twice per week at the dose of 100 mpk for a total of 3 injection during the course of the study. Xenograft tumor size was measured twice per week with a caliper and captured electronically by the LabCat program.
# [6] = system: SJSA-1 osteosarcoma cells; assay: SJSA-1 osteosarcoma xenograft model (05-IGFR-21), dosing from 15 days after inoculation; type: in vivo, female nude mouse (strain NU/NU)
# Description: Xenograft tumor size was measured twice per week with a caliper and captured electronically by the LabCat program. […] For the experiments set forth in Table 9, dosing was initiated 15 days after inoculation. […] Xenograft tumor size was measured twice per week with a caliper and captured electronically by the LabCat program.
smiles,measurement,setting,value
"N.N.[Cl][Pt][Cl] [Cisplatin, cisplatin, reference compound]",Tumor Average Size,[1]; Day 0,99 mm^3
same,Tumor Average Size,[1]; Day 2,131 mm^3
same,Tumor Average Size,[1]; Day 6,174 mm^3
same,Tumor Average Size,[1]; Day 9,212 mm^3
same,Tumor Average Size,[1]; Day 13,264 mm^3
same,Tumor Average Size,[1]; Day 16,288 mm^3
same,Tumor Average Size,[1]; Day 20,299 mm^3
same,Tumor Average Size,[1]; Day 23,352 mm^3
same,Tumor Average Size,[1]; Day 24,352 mm^3
same,Tumor Average Size,"[2]; 5 mpk Cisplatin, Day 0",79 mm^3
same,Tumor Average Size,"[2]; 5 mpk Cisplatin, Day 4",87 mm^3
same,Tumor Average Size,"[2]; 5 mpk Cisplatin, Day 7",96 mm^3
same,Tumor Average Size,"[2]; 5 mpk Cisplatin, Day 11",99 mm^3
same,Tumor Average Size,"[2]; 5 mpk Cisplatin, Day 14",100 mm^3
same,Tumor Average Size,"[2]; 5 mpk Cisplatin, Day 18",107 mm^3
same,Tumor Average Size,"[2]; 5 mpk Cisplatin, Day 21",113 mm^3
same,Tumor Average Size,"[2]; 5 mpk Cisplatin, Day 26",155 mm^3
same,Tumor Average Size,"[2]; 5 mpk Cisplatin, Day 29",175 mm^3
same,Tumor Average Size,"[2]; 5 mpk Cisplatin, Day 33",185 mm^3
same,Tumor Average Size,"[2]; 5 mpk Cisplatin, Day 36",173 mm^3
"O=P1(N(CCCl)CCCl)NCCCO1 (stereo not drawn) [Cytoxan, cyclophosphamide, reference compound]",Tumor Average Size,[3]; Day 4,257 mm^3
same,Tumor Average Size,[3]; Day 7,227 mm^3
same,Tumor Average Size,[3]; Day 11,111 mm^3
same,Tumor Average Size,[3]; Day -1,122 mm^3
same,Tumor Average Size,[4]; Day 0,75 mm^3
same,Tumor Average Size,[4]; Day 4,125 mm^3
same,Tumor Average Size,[4]; Day 7,232 mm^3
same,Tumor Average Size,[4]; Day 11,347 mm^3
same,Tumor Average Size,[4]; Day 14,591 mm^3
same,Tumor Average Size,[4]; Day 18,733 mm^3
same,Mean Tumor size,[5]; Day 0,96 mm3
same,Mean Tumor size,[5]; Day 3,111 mm3
same,Mean Tumor size,[5]; Day 7,102 mm3
same,Mean Tumor size,[5]; Day 10,59 mm3
same,Mean Tumor size,[5]; Day 14,140 mm3
same,Mean Tumor size,[5]; Day 17,172 mm3
same,Mean Tumor size,[5]; Day 21,302 mm3
same,Mean Tumor size,[5]; Day 24,586 mm3
same,Mean Tumor size,[5]; Day 28,972 mm3
same,Mean Tumor size,"[6]; 50 mpk Cytoxan, Day 0",145 mm3
same,Mean Tumor size,"[6]; 50 mpk Cytoxan, Day 4",198 mm3
same,Mean Tumor size,"[6]; 50 mpk Cytoxan, Day 7",287 mm3
same,Mean Tumor size,"[6]; 50 mpk Cytoxan, Day 11",614 mm3
same,Mean Tumor size,"[6]; 50 mpk Cytoxan, Day 14",908 mm3
same,Mean Tumor size,"[6]; 100 mpk Cytoxan, Day 0",149 mm3
same,Mean Tumor size,"[6]; 100 mpk Cytoxan, Day 4",132 mm3
same,Mean Tumor size,"[6]; 100 mpk Cytoxan, Day 7",193 mm3
same,Mean Tumor size,"[6]; 100 mpk Cytoxan, Day 11",218 mm3
same,Mean Tumor size,"[6]; 100 mpk Cytoxan, Day 14",285 mm3
"Cl.Nc1ccn(C2OC(CO)C(O)C2(F)F)c(=O)n1 (stereo not drawn) [Gemzar, gemcitabine, reference compound]",Tumor Average Size,"[2]; 100 mpk Gemzar, Day 0",77 mm^3
same,Tumor Average Size,"[2]; 100 mpk Gemzar, Day 4",86 mm^3
same,Tumor Average Size,"[2]; 100 mpk Gemzar, Day 7",98 mm^3
same,Tumor Average Size,"[2]; 100 mpk Gemzar, Day 11",105 mm^3
same,Tumor Average Size,"[2]; 100 mpk Gemzar, Day 14",119 mm^3
same,Tumor Average Size,"[2]; 100 mpk Gemzar, Day 18",148 mm^3
same,Tumor Average Size,"[2]; 100 mpk Gemzar, Day 21",166 mm^3
same,Tumor Average Size,"[2]; 100 mpk Gemzar, Day 26",249 mm^3
same,Tumor Average Size,"[2]; 100 mpk Gemzar, Day 29",284 mm^3
same,Tumor Average Size,"[2]; 100 mpk Gemzar, Day 33",324 mm^3
same,Tumor Average Size,"[2]; 100 mpk Gemzar, Day 36",368 mm^3
